Data on 14 compounds can be found in ChEMBL document CHEMBL1201862, “PubChem BioAssay data set” (2004).

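The compound was tested at five concentrations on cells cultured in 96-well plates, with a 48-hour exposure period. At the GI50, growth is halved.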 The source made the active and inactive calls. Cut-off read from the data, not from the text of the source: active = GI50 up to about 1.1 µM and inactive = higher.

Among the test systems are OVCAR-3; SNB-19; SK-OV-3; A549; EKVX; SK-MEL-5; HCT-116; HCT-15; LOX IMVI; RXF 393; HOP-92; M14; SK-MEL-2; Malme-3M; NCI-H460; NCI-H522; SR.
Holding throughout (experiment): DTP human tumour cell line panel, 48 h

With `CSc1nc(NC2OCC(OC(C)=O)C(OC(C)=O)C2OC(C)=O)c(/N=C(\C)C(C)=O)c(=O)n1C` (stereo not given), the GI50 in the assay with OVCAR-3, in the assay on SNB-19, in the assay with SK-OV-3, in the assay on A549, with EKVX and in the assay with SK-MEL-5 was > 100 µM (inactive) throughout. Also, the GI50 with HCT-116 is > 100 µM (inactive); in the assay on HCT-15, greater than 100 µM; in the assay on LOX IMVI, > 100 µM (inactive); in the assay on RXF 393 it was > 100 µM (inactive); in the assay on HOP-92, > 100 µM (inactive); in the assay with M14, > 100 µM (inactive). Further, the GI50 in the assay on SK-MEL-2, in the assay on Malme-3M and with NCI-H460 was > 100 µM (inactive) each time.

In the case of `O=C(CC1SC(Nc2ccccc2Cl)=NC1=O)Nc1ccc(Cl)cc1Cl` (stereo not given), the GI50 in the assay on OVCAR-3, with SNB-19, with A549, with EKVX, in the assay on SK-MEL-5 and in the assay on HCT-116 was > 100 µM (inactive) in each case. In addition, the GI50 in the assay with LOX IMVI is > 100 µM (inactive); with RXF 393 it was > 100 µM (inactive); in the assay with HOP-92, > 100 µM (inactive); in the assay with M14 it was > 100 µM (inactive); with SK-MEL-2 it was 81.1 µM (inactive); with Malme-3M it was > 100 µM (inactive). Also, the GI50 in the assay on NCI-H460 was > 100 µM (inactive).

`C=CCn1cc(C(=O)NC(=O)NCCCCCOC(=O)CCCCCCCCCCC(=O)OCCCCCNC(=O)NC(=O)c2cn(CC=C)c(=O)n(C)c2=O)c(=O)n(C)c1=O`: the GI50 with OVCAR-3, in the assay on SNB-19, in the assay with SK-OV-3, with NCI-H522, in the assay on A549 and in the assay on EKVX was > 100 µM (inactive) each time. For the same compound, the GI50 was > 100 µM (inactive) in the assay on SK-MEL-5; > 100 µM (inactive) in the assay with HCT-116; greater than 100 µM with HCT-15; > 100 µM (inactive) with LOX IMVI; > 100 µM (inactive) in the assay on RXF 393; > 100 µM (inactive) with HOP-92. In addition, the GI50 in the assay on M14, in the assay with SK-MEL-2, with Malme-3M and in the assay on NCI-H460 was > 100 µM (inactive) in each case.

Take `Cc1ccccc1-n1c(C)nc(-c2ccccc2)cc1=O`: the GI50 with OVCAR-3, in the assay on SNB-19, in the assay with SK-OV-3, with NCI-H522, with A549 and in the assay on EKVX was > 100 µM (inactive) each time. Besides, the GI50 with SK-MEL-5 is > 100 µM (inactive); with HCT-116, > 100 µM (inactive); with HCT-15, greater than 100 µM; in the assay with LOX IMVI, > 100 µM (inactive); in the assay on RXF 393 it was > 100 µM (inactive); in the assay on HOP-92 it was > 100 µM (inactive). For the same compound, the GI50 with M14, in the assay on SK-MEL-2, with Malme-3M and with NCI-H460 was > 100 µM (inactive) throughout.

With `CCOC(=O)Cc1nc2ccc3c(c2nc1O)C(=O)c1ccccc1C3=O`, the GI50 in the assay with OVCAR-3 is 58.3 µM (inactive); with SNB-19 it was > 100 µM (inactive); in the assay on SK-OV-3, 22.8 µM (inactive); with NCI-H522, 16.8 µM (inactive); in the assay with A549 it was 34.4 µM (inactive); in the assay with EKVX it was 3.61 µM (inactive). The GI50 in the assay with SK-MEL-5 was 26.1 µM (inactive); in the assay on HCT-116, 31.5 µM (inactive); with HCT-15, 25.2 µM; with LOX IMVI, 25.5 µM (inactive); in the assay with RXF 393, 8.09 µM (inactive); in the assay on HOP-92, 60.4 µM (inactive). The GI50 with M14 was 77.3 µM (inactive); in the assay with SK-MEL-2, 76.4 µM (inactive); with Malme-3M, 60.7 µM (inactive); with NCI-H460, 35.4 µM (inactive).

With `COc1cccc(-c2cc(=O)c3cc(C)c(C)c(C(=O)O)c3o2)c1`, the GI50 in the assay with OVCAR-3, in the assay with SNB-19, in the assay on SK-OV-3, in the assay on NCI-H522, in the assay on A549 and with EKVX was > 100 µM (inactive) each time. In addition, the GI50 with SK-MEL-5 was > 100 µM (inactive); in the assay with HCT-116, > 100 µM (inactive); with HCT-15, greater than 100 µM; with LOX IMVI, > 100 µM (inactive); in the assay on HOP-92, > 100 µM (inactive); in the assay on M14, > 100 µM (inactive). In addition, the GI50 in the assay with SK-MEL-2, in the assay with Malme-3M and in the assay on NCI-H460 was > 100 µM (inactive) each time.

As to `Nc1cc2c3c(cccc3c1)C(=O)N(CCN1CCN(CCN3C(=O)c4cccc5cc(N)cc(c45)C3=O)CC1)C2=O`, the GI50 with OVCAR-3 is > 100 µM (inactive); in the assay on SNB-19, 76.2 µM (inactive); in the assay with SK-OV-3, > 100 µM (inactive); in the assay with NCI-H522 it was > 100 µM (inactive); in the assay on A549 it was 46.3 µM (inactive); in the assay on EKVX, > 100 µM (inactive). For the same compound, the GI50 is > 100 µM (inactive) in the assay on SK-MEL-5; 67.6 µM (inactive) with HCT-116; greater than 100 µM in the assay with HCT-15; > 100 µM (inactive) with RXF 393; > 100 µM (inactive) with HOP-92; 98.9 µM (inactive) with M14. Besides, the figures for the GI50 with SK-MEL-2, with Malme-3M and with NCI-H460 were > 100 µM (inactive), > 100 µM (inactive) and 33.3 µM (inactive), respectively.

Regarding `Cc1ccc(Oc2ccc([N+](=O)[O-])cc2[N+](=O)[O-])c(C)c1`, the GI50 in the assay on OVCAR-3 is 35.2 µM (inactive); in the assay with SK-OV-3, > 100 µM (inactive); with A549, 34.1 µM (inactive); in the assay with EKVX it was 88.7 µM (inactive); in the assay with SK-MEL-5 it was 21.1 µM (inactive); with HCT-116 it was 30.3 µM (inactive). Besides, the GI50 in the assay with HCT-15 is 35.1 µM; with RXF 393 it was 20.5 µM (inactive); with M14, 48.6 µM (inactive); with SK-MEL-2, 56.9 µM (inactive); in the assay with Malme-3M it was 75 µM (inactive); in the assay on NCI-H460, 37.3 µM (inactive).

Take `Cc1ccccc1C(=O)Oc1ccc(Oc2ccccc2)cc1`: the GI50 in the assay with OVCAR-3 is > 100 µM (inactive); with SNB-19 it was > 100 µM (inactive); in the assay with SK-OV-3 it was > 100 µM (inactive); in the assay on A549, > 100 µM (inactive); in the assay on EKVX, 73.5 µM (inactive); with SK-MEL-5 it was > 100 µM (inactive). The GI50 in the assay on HCT-116 is > 100 µM (inactive); in the assay with HCT-15 it was greater than 100 µM; with RXF 393, > 100 µM (inactive); with M14, > 100 µM (inactive); in the assay on SK-MEL-2, > 100 µM (inactive); in the assay on Malme-3M, > 100 µM (inactive). Besides, in the assay on NCI-H460, the GI50 is 39.2 µM (inactive).

As for `Nc1c(C(=O)NC23CC4CC(CC(C4)C2)C3)[n+]([O-])c2ccccc2[n+]1[O-]`, the GI50 in the assay with OVCAR-3, in the assay with SNB-19, with SK-OV-3, in the assay on NCI-H522, in the assay with A549 and in the assay on EKVX was > 100 µM (inactive) throughout. Also, the GI50 was > 100 µM (inactive) in the assay with SK-MEL-5; greater than 100 µM with HCT-15; > 100 µM (inactive) with LOX IMVI; 90.4 µM (inactive) in the assay on HOP-92; > 100 µM (inactive) in the assay with M14; > 100 µM (inactive) in the assay with SK-MEL-2. The GI50 in the assay with Malme-3M and in the assay with NCI-H460 was > 100 µM (inactive) each time.

Regarding `COC(=O)C12CC3CC(C1)CC(C(=O)OC)(C3)C2`, the GI50 in the assay with OVCAR-3, in the assay with SNB-19, in the assay on SK-OV-3, in the assay with NCI-H522, in the assay with A549 and in the assay with EKVX was > 100 µM (inactive) in each case. For the same compound, the GI50 was > 100 µM (inactive) in the assay on SK-MEL-5; > 100 µM (inactive) in the assay with HCT-116; greater than 100 µM with HCT-15; > 100 µM (inactive) with SR; > 100 µM (inactive) in the assay with LOX IMVI; > 100 µM (inactive) with HOP-92. The GI50 with M14 and in the assay with NCI-H460 was > 100 µM (inactive) each time.

For `COc1cccc([C@@]2(O)c3c(ccc(O)c3OC)[C@H]2OC)c1OC`, the GI50 in the assay on OVCAR-3 is 23.9 µM (inactive); in the assay with SNB-19, 74 µM (inactive); with SK-OV-3, 31.8 µM (inactive); in the assay on NCI-H522, 16.3 µM (inactive); in the assay with A549, 37 µM (inactive); with EKVX, 47.2 µM (inactive). Besides, the GI50 with SK-MEL-5 is 37.9 µM (inactive); in the assay with SR it was 38.5 µM (inactive); in the assay on HOP-92, 62.7 µM (inactive); in the assay on M14, 30.5 µM (inactive); in the assay with SK-MEL-2, 37.8 µM (inactive); in the assay on Malme-3M, 46.2 µM (inactive). Besides, the GI50 with NCI-H460 is 47.4 µM (inactive).

Turning to `CN1N=C(Nc2ccccc2)Sc2c1cnn(-c1ccccc1)c2=O`, the GI50 with OVCAR-3 is 28.1 µM (inactive); in the assay on SNB-19 it was 96.4 µM (inactive); in the assay on SK-OV-3, > 100 µM (inactive); in the assay with A549 it was > 100 µM (inactive); in the assay on EKVX, > 100 µM (inactive); in the assay on HCT-116, > 100 µM (inactive). For the same compound, the GI50 in the assay on HCT-15 was greater than 100 µM; in the assay on LOX IMVI it was 87.3 µM (inactive); in the assay on RXF 393, > 100 µM (inactive); with HOP-92, 6.62 µM (inactive); in the assay with M14 it was > 100 µM (inactive); in the assay with SK-MEL-2, > 100 µM (inactive). Further, the GI50 in the assay with Malme-3M and in the assay with NCI-H460 was > 100 µM (inactive) in each case.

On to `Cc1cnc[nH]c1=O`, for which the GI50 with OVCAR-3, in the assay with SNB-19, in the assay with SK-OV-3, in the assay with NCI-H522, in the assay on A549 and in the assay on EKVX was > 100 µM (inactive) in each case. In addition, the GI50 in the assay on SK-MEL-5 is > 100 µM (inactive); in the assay on HCT-116 it was > 100 µM (inactive); in the assay with HCT-15, greater than 100 µM; in the assay on LOX IMVI, > 100 µM (inactive); with M14, > 100 µM (inactive); in the assay with SK-MEL-2, > 100 µM (inactive). Further, the GI50 in the assay on Malme-3M and with NCI-H460 was > 100 µM (inactive) in each case.

One may read the GI50 as the concentration that inhibits growth by half.
